# Measured values from patent publication US20240335548A1, “MACROMOLECULES” (Starpharma Pty Ltd, priority 2011, published 2024).
# Like-named read-outs stand apart in the source and are kept apart here.
# Columns and labels:
# [1] = test system: HCT116 (Colon); test: Cell growth inhibition SRB assay; type: cell-based
# Experimental: (§1) All solutions were prepared in saline (except docetaxel which was made in ethanol). All solutions were stored at −20° C. All values were based on the equivalent drug loading.
# [2] = test system: H460 (Lung); test: Cell growth inhibition SRB assay; type: cell-based
# Experimental: as §1
# [3] = test system: MCAS (Ovarian); test: Cell growth inhibition SRB assay; type: cell-based
# Experimental: as §1
# [4] = test system: A549 (Lung); test: Cell growth inhibition SRB assay; type: cell-based
# Experimental: as §1
# [5] = test system: HT29 (Colon); test: Cell growth inhibition SRB assay; type: cell-based
# Experimental: as §1
# [6] = test system: A2058 (Melanoma); test: Cell growth inhibition SRB assay; type: cell-based
# Experimental: as §1
# [7] = test system: PC-3 (Prostate); test: Cell growth inhibition SRB assay; type: cell-based
# Experimental: as §1
# [8] = test system: ES2 (Ovarian); test: Cell growth inhibition SRB assay; type: cell-based
# Experimental: as §1
# [9] = test system: DU145 (Prostate); test: Cell growth inhibition SRB assay; type: cell-based
# Experimental: as §1
# [10] = test system: MDA-MB-231 (Breast); test: Cell growth inhibition SRB assay; type: cell-based
# Experimental: as §1
# [11] = Water solubility study on drug loaded dendrimers; type: physicochemical
# Experimental: Protocol: To 30 mg of dendrimer (freeze-dried from water) was added 100 μL of deionised water. After mixing for 10 minutes, additional aliquots of water (10-30 μL per addition) were added with vortexing and incubation for 10 mins until full dissolution was obtained. This amount is represented in Table 1 as the water solubility of the dendrimer. The equivalent drug solubility is determined by multiplying the % drug loading/100 and is represented in Table 1 (column 3) as Equivalent drug solubility on dendrimer. Finally, the fold increase is obtained by dividing the Equivalent drug solubility on dendrimer by the solubility of the drug and is represented in Table 1 (column 4).
# [12] = test system: HCT-116; test: IC50 using the MTT assay; type: cell-based; settings: 72 hours
# Experimental: (§2) The IC50 using the MTT assay [Wilson, Anne P. (2000). “Chapter 7: Cytotoxicity and viability”. In Masters, John R. W. Animal Cell Culture: A Practical Approach. Vol. 1 (3rd ed.). Oxford: Oxford University Press] was determined against various cancer cell lines after 72 hours.
# [13] = test system: H460; test: IC50 using the MTT assay; type: cell-based; settings: 72 hours
# Experimental: as §2
# [14] = test system: A549; test: IC50 using the MTT assay; type: cell-based; settings: 72 hours
# Experimental: as §2
# [15] = test system: A2780; test: IC50 using the MTT assay; type: cell-based; settings: 72 hours
# Experimental: as §2
# [16] = test system: DU-145; test: IC50 using the MTT assay; type: cell-based; settings: 72 hours
# Experimental: as §2
# [17] = test system: PC-3; test: IC50 using the MTT assay; type: cell-based; settings: 72 hours
# Experimental: as §2
# [18] = test system: HT-29; test: IC50 using the MTT assay; type: cell-based; settings: 72 hours
# Experimental: as §2
# [19] = test system: MCF-7; test: IC50 using the MTT assay; type: cell-based; settings: 72 hours
# Experimental: as §2
# [20] = Plasma stability study: docetaxel release in mouse plasma; type: in vitro ADME; settings: 37° C.
# Experimental: Protocol: To 0.5 mL of mouse plasma was added 0.1 mL of dendrimer solution (2 mg/mL, drug equivalent in saline). The mixtures were vortexed (30 s) then incubated at 37° C. At various timepoints (0.5, 2.5, 4.5, 22 hours) 0.1 mL aliquots were removed and added to 0.2 mL ACN. The resulting mixtures were vortexed (30 s), centrifuged (10 min, 4° C.) filtered and analysed by HPLC (C8, 3.9×150 mm, 5 μm, wavelength=243 nm, 10 μL injections, gradient: 40-80% ACN/H2O (1-7 min), 80% ACN (7-9 min), 80-40% ACN (9-11 min), 40% ACN (11-15 min), 10 mM ammonium formate, pH 7.40) which when compared against a standard (2 mg//mL) provided the concentration of free docetaxel in the sample.
# [21] = HCT116, 72 hours, equivalent drug loading, average of duplicate
# [22] = H460, 72 hours, equivalent drug loading, average of duplicate
# [23] = MCAS, 72 hours, equivalent drug loading, average of duplicate
# [24] = A549, 72 hours, equivalent drug loading, average of duplicate
# [25] = HT29, 72 hours, equivalent drug loading, average of duplicate
# [26] = A2058, 72 hours, equivalent drug loading, average of duplicate
# [27] = PC-3, 72 hours, equivalent drug loading, average of duplicate
# [28] = ES2, 72 hours, equivalent drug loading, average of duplicate
# [29] = DU145, 72 hours, equivalent drug loading, average of duplicate
# [30] = MDA-MB-231, 72 hours, equivalent drug loading, average of duplicate
# [31] = deionised water, until full dissolution
# [32] = equivalent drug solubility divided by solubility of the drug
# [33] = water solubility x % drug loading/100
substance,measurement,setting,value
BHALys[Lys]32[α-4-HSBA-4Aba-DTX]32[ε-PEG1100]32 [1 (b)],GI50,[1]; [21],8.5 nM
same,GI50,[2]; [22],13 nM
same,GI50,[3]; [23],29 nM
same,GI50,[4]; [24],13 nM
same,GI50,[5]; [25],12.5 nM
same,GI50,[6]; [26],9.5 nM
same,GI50,[7]; [27],17 nM
same,GI50,[8]; [28],16.5 nM
same,GI50,[9]; [29],11.5 nM
same,GI50,[10]; [30],11.5 nM
BHALys[Lys]32[α-DGA-Testosterone]32[ε-PEG570]32 [Example 21],Equivalent drug solubility on dendrimer,[11],14.8 mg/mL
same,Fold increase in drug solubility,[11],618
same,Water solubility of dendrimer,[11],>81 mg/mL
BHALys[Lys]32[α-DGA-Testosterone]32[ε-PEG1100]32 [20 (b)],Equivalent drug solubility on dendrimer,[11],11.5 mg/mL
same,Fold increase in drug solubility,[11],482
same,Water solubility of dendrimer,[11],>75 mg/mL
BHALys[Lys]32[α-GFLG-Glu-DTX]32[ε-PEG1100]32 [15 (c)],IC50,[12],7.2 nM
same,IC50,[13],31.8 nM
same,IC50,[14],8.1 nM
same,IC50,[15],13.6 nM
same,IC50,[16],29.5 nM
same,IC50,[17],11.8 nM
same,IC50,[18],5.7 nM
same,IC50,[19],8.3 nM
BHALys[Lys]32[α-GGG-Glu-DTX]32[ε-PEG1100]32 [14 (c)],IC50,[12],2.6 nM
same,IC50,[13],4.3 nM
same,IC50,[14],1.5 nM
same,IC50,[15],4.6 nM
same,IC50,[16],7.3 nM
same,IC50,[17],3.8 nM
same,IC50,[18],0.5 nM
same,IC50,[19],0.5 nM
BHALys[Lys]32[α-GILGVP-Glu-DTX]32[ε-t-PEG2300]32 [Example 17],IC50,[12],216 nM
same,IC50,[13],603 nM
same,IC50,[14],160 nM
same,IC50,[15],291 nM
same,IC50,[16],290 nM
same,IC50,[17],359 nM
same,IC50,[18],85 nM
same,IC50,[19],93.7 nM
BHALys[Lys]32[α-Glu-DTX]32[ε-PEG1100]32 [5 (b)],Water solubility of dendrimer,[11]; [31],214 mg/mL
same,Fold increase in drug solubility,[11]; [32],4000
same,Equivalent drug solubility on dendrimer,[11]; [33],75 mg/mL
same,GI50,[1],85.5 nM
same,GI50,[2],106 nM
same,GI50,[3],252 nM
same,GI50,[4],56.5 nM
same,GI50,[5],97.5 nM
same,GI50,[6],71.5 nM
same,GI50,[7],160 nM
same,GI50,[8],116 nM
same,GI50,[9],148 nM
same,GI50,[10],50.5 nM
same,Docetaxel release in plasma,[20]; 0.5 hours,0 percentage of total docetaxel
same,Docetaxel release in plasma,[20]; 2.5 hours,0 percentage of total docetaxel
same,Docetaxel release in plasma,[20]; 22 hours,4 percentage of total docetaxel
BHALys[Lys]32[α-Glu-GEM]32[ε-PEG1100]32 [13 (b)],GI50,[1]; [21],30.5 nM
same,GI50,[2]; [22],127 nM
same,GI50,[3]; [23],117 nM
same,GI50,[4]; [24],73 nM
same,GI50,[5]; [25],117 nM
same,GI50,[6]; [26],100 nM
same,GI50,[7]; [27],288 nM
same,GI50,[8]; [28],48 nM
same,GI50,[9]; [29],99 nM
same,GI50,[10]; [30],50.5 nM
BHALys[Lys]32[α-Glu-PTX]32[ε-PEG2300]32 [Example 12],Water solubility of dendrimer,[11],15 mg/mL
same,Fold increase in drug solubility,[11]; [32],10000
same,Equivalent drug solubility on dendrimer,[11]; [33],3 mg/mL
BHALys[Lys]32[α-Glu-Testosterone]32[ε-PEG570]32 [Example 23],Equivalent drug solubility on dendrimer,[11],26.6 mg/mL
same,Fold increase in drug solubility,[11],1109
same,Water solubility of dendrimer,[11],>125 mg/mL
BHALys[Lys]32[α-Glu-Testosterone]32[ε-PEG1100]32 [22 (b)],Equivalent drug solubility on dendrimer,[11],14.7 mg/mL
same,Fold increase in drug solubility,[11],610
same,Water solubility of dendrimer,[11],>89 mg/mL
BHALys[Lys]32[α-MIDA-DTX]32[ε-PEG1100]32 [6 (b)],Water solubility of dendrimer,[11]; [31],100 mg/mL
same,Fold increase in drug solubility,[11]; [32],6400
same,Equivalent drug solubility on dendrimer,[11]; [33],32 mg/mL
same,GI50,[2],11 nM
same,GI50,[7],10.5 nM
same,GI50,[8],12.5 nM
same,Docetaxel release in plasma,[20]; 0.5 hours,7.5 percentage of total docetaxel
same,Docetaxel release in plasma,[20]; 2.5 hours,9 percentage of total docetaxel
same,Docetaxel release in plasma,[20]; 22 hours,23.5 percentage of total docetaxel
BHALys[Lys]32[α-PDT-DTX]32[ε-PEG1100]32 [9 (b)],GI50,[2]; [22],365 nM
same,GI50,[7]; [27],618 nM
same,GI50,[8]; [28],888 nM
BHALys[Lys]32[α-PEG2-DTX]32[ε-PEG1100]32 [10 (b)],GI50,[2]; [22],6.5 nM
same,GI50,[7]; [27],9.5 nM
same,GI50,[8]; [28],10.5 nM
BHALys[Lys]32[α-PEG1100]32[ε-TDA-DTX]32 [Example 18],IC50,[12],2.9 nM
same,IC50,[13],7.5 nM
same,IC50,[14],20.3 nM
same,IC50,[15],5.7 nM
same,IC50,[16],11.6 nM
same,IC50,[17],5.9 nM
same,IC50,[18],1.8 nM
same,IC50,[19],3.3 nM
BHALys[Lys]32[α-PSSP-DTX]32[ε-PEG1100]32 [2 (b)],Water solubility of dendrimer,[11],57 mg/mL
same,Fold increase in drug solubility,[11]; [32],2800
same,Equivalent drug solubility on dendrimer,[11]; [33],14 mg/mL
same,GI50,[2]; [22],73 nM
same,GI50,[7]; [27],110 nM
same,GI50,[8]; [28],116 nM
same,Docetaxel release in plasma,[20]; 0.5 hours,5 percentage of total docetaxel
same,Docetaxel release in plasma,[20]; 2.5 hours,8 percentage of total docetaxel
same,Docetaxel release in plasma,[20]; 22 hours,15.5 percentage of total docetaxel
BHALys[Lys]32[α-o-PDA-DTX]32[ε-PEG1100]32 [7 (b)],Water solubility of dendrimer,[11]; [31],91 mg/mL
same,Fold increase in drug solubility,[11]; [32],5000
same,Equivalent drug solubility on dendrimer,[11]; [33],25 mg/mL
same,GI50,[2],4.5 nM
same,GI50,[7],6.5 nM
same,GI50,[8],8 nM
same,Docetaxel release in plasma,[20]; 0.5 hours,20.5 percentage of total docetaxel
same,Docetaxel release in plasma,[20]; 2.5 hours,32 percentage of total docetaxel
same,Docetaxel release in plasma,[20]; 22 hours,71.5 percentage of total docetaxel
